Target: T1, hALDH2 (Homo sapiens, UniProt P05091)
T1 sequence (P05091 18-517): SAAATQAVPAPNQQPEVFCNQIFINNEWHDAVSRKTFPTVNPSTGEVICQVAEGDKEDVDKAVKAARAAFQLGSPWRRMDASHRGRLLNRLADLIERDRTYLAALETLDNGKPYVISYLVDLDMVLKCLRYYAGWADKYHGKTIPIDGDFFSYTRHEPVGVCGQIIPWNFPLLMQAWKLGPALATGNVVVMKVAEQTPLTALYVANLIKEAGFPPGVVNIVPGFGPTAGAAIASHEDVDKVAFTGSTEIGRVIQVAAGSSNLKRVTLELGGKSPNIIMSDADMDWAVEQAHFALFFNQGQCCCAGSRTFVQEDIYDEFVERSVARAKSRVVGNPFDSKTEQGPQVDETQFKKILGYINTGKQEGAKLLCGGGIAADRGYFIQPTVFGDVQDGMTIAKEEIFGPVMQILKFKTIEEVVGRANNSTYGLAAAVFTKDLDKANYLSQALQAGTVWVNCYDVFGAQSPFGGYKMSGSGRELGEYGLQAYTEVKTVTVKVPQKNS
Assay type: biochemical

CN(C)C(=S)SSC(=S)N(C)C [thiram]
IC50: 1.6 µM

Source: article PMC11682119 (Scientific Reports, 2024)
